These results are taken from patent US20220089598A1, “INHIBITORS OF HUMAN IMMUNODEFICIENCY VIRUS REPLICATION” (VIIV HEALTHCARE UK (No. 5) LIMITED, priority 2018, published 2022).

The nature of series [1]: Compound cytotoxicity, XTT-based colorimetric assay. The class given is cell-based. The settings on record: human; uninfected MT2 cells, day 4, XTT assay. The method, then: Compound cytotoxicity and the corresponding CC50 values were determined using the same protocol as described in the antiviral assay except that uninfected cells were used. Cytotoxicity was assessed on day 4 in uninfected MT2 cells by using a XTT (2,3-bis[2-Methoxy-4-nitro-5-sulfophenyl]-2H-tetrazolium-5-carboxyanilide inner salt)-based colorimetric assay (Sigma-Aldrich, St Louis, Mo.).

The subject of series [2] is recombinant NL4-3 virus (Renilla luciferase) in MT-2 cells. As to the kind of experiment: HIV cell culture assay (antiviral activity, luciferase readout). The class given is cell-based. To be noted: Renilla, NL43. The method, then:
HIV cell culture assay—MT-2 cells, 293T cells and the proviral DNA clone of NL4-3 virus were obtained from the NIH AIDS Research and Reference Reagent Program. MT-2 cells were propagated in RPMI 1640 media supplemented with 10% heat inactivated fetal bovine serum (FBS), 100 μg/ml penicillin G and up to 100 units/mL streptomycin. The 293T cells were propagated in DMEM media supplemented with 10% heat inactivated FBS, 100 μg/mL penicillin G and 100 μg/mL streptomycin. A recombinant NL4-3 proviral clone, in which a section of the nef gene was replaced with the Renilla luciferase gene, was used to make the reference virus used in these studies. The recombinant virus was prepared through transfection of the recombinant NL4-3 proviral clone into 293T cells using Transit-293 Transfection Reagent from Mirus Bio LLC (Madison, Wis.). Supernatent was harvested after 2-3 days and the amount of virus present was titered in MT-2 cells using luciferase enzyme activity as a marker by measuring luciferase enzyme activity. Luciferase was quantitated using the EnduRen Live Cell Substrate from Promega (Madison, Wis.). Antiviral activities of compounds toward the recombinant virus were quantified by measuring luciferase activity in MT-2 cells infected for 4-5 days with the recombinant virus in the presence of serial dilutions of the compound.
The 50% effective concentration (EC50) was calculated by using the exponential form of the median effect equation where (Fa)=1/[1+(ED50/drug conc.)m] (Johnson V A, Byington R T. Infectivity Assay. In Techniques in HIV Research. ed. Aldovini A, Walker B D. 71-76. New York: Stockton Press. 1990).

For `Cn1nc(NS(C)(=O)=O)c2c(Cl)ccc(-n3c([C@H](Cc4cc(F)cc(F)c4)NC(=O)Cn4nc(C(F)F)c5c4C(F)(F)[C@@H]4C[C@H]54)nc4nc(-c5ccccc5F)ccc4c3=O)c21` (atropisomer, axis not shown; (P)) [Example 1, N—((S)-1-((3P)-3-(4-chloro-1-methyl-3-(methylsulfonamido)-1H-indazol-7-yl)-7-(2-fluorophenyl)-4-oxo-3,4-dihydropyrido[2,3-d]pyrimidin-2-yl)-2-(3,5-difluorophenyl)ethyl)-2-((3bS,4aR)-3-(difluoromethyl)-5,5-difluoro-3b,4,4a,5-tetrahydro-1H-cyclopropa[3,4]cyclopenta[1,2-c]pyrazol-1-yl)acetamide], the CC50 at 4 day in series [1] is greater than 1000 nM. Moreover, the EC50 in series [2] was 0.06 nM.

Turning to `COc1nc2nc([C@H](Cc3cc(F)cc(F)c3)NC(=O)Cn3nc(C(F)F)c4c3C(F)(F)[C@@H]3C[C@H]43)n(-c3ccc(Cl)c4c(NS(C)(=O)=O)nn(C)c34)c(=O)c2cc1-c1ccccc1F` (atropisomer, axis not shown; (P)) [Example 2, N—((S)-1-((3P)-3-(4-chloro-1-methyl-3-(methylsulfonamido)-1H-indazol-7-yl)-6-(2-fluorophenyl)-7-methoxy-4-oxo-3,4-dihydropyrido[2,3-d]pyrimidin-2-yl)-2-(3,5-difluorophenyl)ethyl)-2-((3bS,4aR)-3-(difluoromethyl)-5,5-difluoro-3b,4,4a,5-tetrahydro-1H-cyclopropa[3,4]cyclopenta[1,2-c]pyrazol-1-yl)acetamide], the CC50 at 4 day in series [1] was greater than 1000 nM. Besides, the concentration for a half-maximal effect (EC50) in series [2] was 0.25 nM.

In series [1], `Cn1nc(NS(C)(=O)=O)c2c(Cl)ccc(-n3c([C@H](Cc4cc(F)cc(F)c4)NC(=O)Cn4nc(C(F)F)c5c4C(F)(F)[C@@H]4C[C@H]54)nc4nc(-c5c(F)cccc5F)ccc4c3=O)c21` (atropisomer, axis not shown; (P)) [Example 3, N—((S)-1-((3P)-3-(4-chloro-1-methyl-3-(methylsulfonamido)-1H-indazol-7-yl)-7-(2,6-difluorophenyl)-4-oxo-3,4-dihydropyrido[2,3-d]pyrimidin-2-yl)-2-(3,5-difluorophenyl)ethyl)-2-((3bS,4aR)-3-(difluoromethyl)-5,5-difluoro-3b,4,4a,5-tetrahydro-1H-cyclopropa[3,4]cyclopenta[1,2-c]pyrazol-1-yl)acetamide] showed a CC50 at 4 day greater than 100 nM. In addition, the EC50 in series [2] stood at 0.11 nM.

On to `Cn1nc(NS(C)(=O)=O)c2c(Cl)ccc(-n3c([C@H](Cc4cc(F)cc(F)c4)NC(=O)Cn4nc(C(F)F)c5c4C(F)(F)[C@@H]4C[C@H]54)nc4nc(-c5cccc(F)c5F)ccc4c3=O)c21` (atropisomer, axis not shown; (P)) [Example 4, N—((S)-1-((3P)-3-(4-chloro-1-methyl-3-(methylsulfonamido)-1H-indazol-7-yl)-7-(2,3-difluorophenyl)-4-oxo-3,4-dihydropyrido[2,3-d]pyrimidin-2-yl)-2-(3,5-difluorophenyl)ethyl)-2-((3bS,4aR)-3-(difluoromethyl)-5,5-difluoro-3b,4,4a,5-tetrahydro-1H-cyclopropa[3,4]cyclopenta[1,2-c]pyrazol-1-yl)acetamide], for which the CC50 at 4 day in series [1] is greater than 100 nM. In addition, the EC50 in series [2] was determined as 0.092 nM.

Compound `Cn1nc(NS(C)(=O)=O)c2c(Cl)ccc(-n3c([C@H](Cc4cc(F)cc(F)c4)NC(=O)Cn4nc(C(F)F)c5c4C(F)(F)[C@@H]4C[C@H]54)nc4nc(-c5ccc(F)c(CO)c5)ccc4c3=O)c21` (atropisomer, axis not shown; (P)) [Example 5, N—((S)-1-((3P)-3-(4-chloro-1-methyl-3-(methylsulfonamido)-1H-indazol-7-yl)-7-(4-fluoro-3-(hydroxymethyl)phenyl)-4-oxo-3,4-dihydropyrido[2,3-d]pyrimidin-2-yl)-2-(3,5-difluorophenyl)ethyl)-2-((3bS,4aR)-3-(difluoromethyl)-5,5-difluoro-3b,4,4a,5-tetrahydro-1H-cyclopropa[3,4]cyclopenta[1,2-c]pyrazol-1-yl)acetamide] had a cytotoxic concentration (CC50) at 4 day in series [1] greater than 500 nM. For the same compound, the EC50 in series [2] was 0.16 nM.

Regarding `Cn1nc(NS(C)(=O)=O)c2c(Cl)ccc(-n3c([C@H](Cc4cc(F)cc(F)c4)NC(=O)Cn4nc(C(F)F)c5c4C(F)(F)[C@@H]4C[C@H]54)nc4nc(-c5cc(Cl)c(F)cc5F)ccc4c3=O)c21` (atropisomer, axis not shown; (P)) [Example 6, N—((S)-1-((3P)-3-(4-chloro-1-methyl-3-(methylsulfonamido)-1H-indazol-7-yl)-7-(5-chloro-2,4-difluorophenyl)-4-oxo-3,4-dihydropyrido[2,3-d]pyrimidin-2-yl)-2-(3,5-difluorophenyl)ethyl)-2-((3bS,4aR)-3-(difluoromethyl)-5,5-difluoro-3b,4,4a,5-tetrahydro-1H-cyclopropa[3,4]cyclopenta[1,2-c]pyrazol-1-yl)acetamide], the 50% cytotoxic concentration (CC50) at 4 day in series [1] was greater than 100 nM. Further, the EC50 in series [2] amounted to 0.192 nM.

In series [1], `O=C(Cn1nc(C(F)(F)F)c2c1C(F)(F)[C@@H]1C[C@H]21)N[C@@H](Cc1cc(F)cc(F)c1)c1nc2nc(-c3ccccc3F)ccc2c(=O)n1-c1ccc(Cl)c2c(NS(=O)(=O)C3CC3)nn(CC(F)F)c12` (atropisomer, axis not shown; (P)) [Example 7, N—((S)-1-((3P)-3-(4-chloro-3-(cyclopropanesulfonamido)-1-(2,2-difluoroethyl)-1H-indazol-7-yl)-7-(2-fluorophenyl)-4-oxo-3,4-dihydropyrido[2,3-d]pyrimidin-2-yl)-2-(3,5-difluorophenyl)ethyl)-2-((3bS,4aR)-5,5-difluoro-3-(trifluoromethyl)-3b,4,4a,5-tetrahydro-1H-cyclopropa[3,4]cyclopenta[1,2-c]pyrazol-1-yl)acetamide] had a CC50 at 4 day greater than 100 nM. The EC50 in series [2] turned out to be 0.056 nM.

In series [1], `Cn1nc(NS(C)(=O)=O)c2c(Cl)ccc(-n3c([C@H](Cc4cc(F)cc(F)c4)NC(=O)Cn4nc(C(F)F)c5c4C(F)(F)[C@@H]4C[C@H]54)nc4nc(-c5ccc(Cl)cc5F)ccc4c3=O)c21` (atropisomer, axis not shown; (P)) [Example 8, N—((S)-1-((3P)-3-(4-chloro-1-methyl-3-(methylsulfonamido)-1H-indazol-7-yl)-7-(4-chloro-2-fluorophenyl)-4-oxo-3,4-dihydropyrido[2,3-d]pyrimidin-2-yl)-2-(3,5-difluorophenyl)ethyl)-2-((3bS,4aR)-3-(difluoromethyl)-5,5-difluoro-3b,4,4a,5-tetrahydro-1H-cyclopropa[3,4]cyclopenta[1,2-c]pyrazol-1-yl)acetamide] returned a CC50 at 4 day greater than 20000 nM. Moreover, the EC50 in series [2] is 0.067 nM.

The compound `Cn1nc(NS(C)(=O)=O)c2c(Cl)ccc(-n3c([C@H](Cc4cc(F)cc(F)c4)NC(=O)Cn4nc(C(F)F)c5c4C(F)(F)[C@@H]4C[C@H]54)nc4nc(-c5cc(F)ccc5F)ccc4c3=O)c21` (atropisomer, axis not shown; (P)) [Example 9, N—((S)-1-((3P)-3-(4-chloro-1-methyl-3-(methylsulfonamido)-1H-indazol-7-yl)-7-(2,5-difluorophenyl)-4-oxo-3,4-dihydropyrido[2,3-d]pyrimidin-2-yl)-2-(3,5-difluorophenyl)ethyl)-2-((3bS,4aR)-3-(difluoromethyl)-5,5-difluoro-3b,4,4a,5-tetrahydro-1H-cyclopropa[3,4]cyclopenta[1,2-c]pyrazol-1-yl)acetamide] displayed a CC50 at 4 day in series [1] greater than 500 nM. The EC50 in series [2] worked out at 0.12 nM.

`CS(=O)(=O)Nc1nn(CC(F)F)c2c(-n3c([C@H](Cc4cc(F)cc(F)c4)NC(=O)Cn4nc(C(F)F)c5c4C(F)(F)[C@@H]4C[C@H]54)nc4nc(-c5ccccc5F)ccc4c3=O)ccc(Cl)c12` (atropisomer, axis not shown; (P)) [Example 10, N—((S)-1-((3P)-3-(4-chloro-1-(2,2-difluoroethyl)-3-(methylsulfonamido)-1H-indazol-7-yl)-7-(2-fluorophenyl)-4-oxo-3,4-dihydropyrido[2,3-d]pyrimidin-2-yl)-2-(3,5-difluorophenyl)ethyl)-2-((3bS,4aR)-3-(difluoromethyl)-5,5-difluoro-3b,4,4a,5-tetrahydro-1H-cyclopropa[3,4]cyclopenta[1,2-c]pyrazol-1-yl)acetamide]: the CC50 at 4 day in series [1] is greater than 100 nM. Also, the EC50 in series [2] was 0.097 nM.

In general, CC50 refers to the concentration giving 50% cytotoxicity. The term EC50 denotes the midpoint of the concentration-response curve.
